Data reported in patent US9765087B2, “Benzimidazole derivatives” (ENANTA PHARMACEUTICALS, INC., priority 2009, dated 2017).
Read-outs that look alike come from different tables or passages of the source.

Test system: HCV 1b genotype replicon
Assay: HCV replicon assay (qRT-PCR or luciferase), genotype 1b
Type: cell-based
Settings: Hepatitis C virus
Source text: HCV replicon cell lines (kindly provided by R. Bartenschlager) isolated from colonies as described by Lohman et. al. (Lohman et al. (1999) Science 285: 110-113, expressly incorporated by reference in its entirety) and used for all experiments. The HCV replicon has the nucleic acid sequence set forth in EMBL Accession No.: AJ242651, the coding sequence of which is from nucleotides 1801 to 8406.
The coding sequence of the published HCV replicon was synthesized and subsequently assembled in a modified plasmid pBR322 (Promega, Madison, Wis.) using standard molecular biology techniques. One replicon cell line (“SGR 11-7”) stably expresses HCV replicon RNA which consists of (i) the HCV 5′UTR fused to the first 12 amino acids of the capsid protein, (ii) the neomycin phosphotransferase gene (neo), (iii) the IRES from encephalomyocarditis virus (EMCV), and (iv) HCV […] to NSSB genes and the HCV 3′UTR. Another replicon cell line (“Huh-luc/neo-ET”) described by Vrolijk et. al. (Vrolijk et. al. (2003) Journal of Virological Methods 110:201-209, expressly incorporated by reference in its entirety) stably expresses HCV replicon RNA which consists of (i) the HCV 5′UTR fused to the first 12 amino acids of the capsid protein, (ii) the firefly luciferase reporter gene, (iii) the ubiquitin gene, (iv) the neomycin phosphotransferase gene (neo), (v) the IRES from encephalomyocarditis virus (EMCV), and (vi) HCV NS3 to NS5B genes that harbor cell culture adaptive mutations (E1202G, T1280I, K1846T) and the HCV 3′UTR.
These cell lines were maintained at 37° C., 5% CO2, 100% relative humidity in DMEM (Cat#11965-084, Invitrogen), with 10% fetal calf serum (“FCS”, Invitrogen), 1% non-essential amino acids (Invitrogen), 1% of Glutamax (Invitrogen), 1% of 100× penicillin/streptomycin (Cat#15140-122, Invitrogen) and Geneticin (Cat#10131-027, Invitrogen) at 0.75 mg/ml or 0.5 mg/ml for 11-7 and Huh-luc/neo-ET cells, respectively.
EC50 values of single agent compounds and combinations were determined by HCV RNA detection using quantitative RT-PCR, according to the manufacturer's instructions, with a TAQMAN® One-Step RT-PCR Master Mix Reagents Kit (Cat#AB 4309169, Applied Biosystems) on an ABI Model 7500 thermocycler. The TaqMan primers used for detecting and quantifying HCV RNA were obtained from Integrated DNA Technologies. HCV RNA was normalized to GAPDH RNA levels in drug-treated cells, which is detected and quantified using the Human GAPDH Endogenous Control Mix (Applied Biosystems, AB 4310884E). Total cellular RNA is purified from 96-well plates using the RNAqueous 96 kit (Ambion, Cat# AM1812). Chemical agent cytotoxicity is evaluated using an MTS assay according to the manufacturer's directions (Promega).
Since clinical drug resistance often develops in viral infections following single agent therapies, there is a need to assess the additive, antagonistic, or synergistic properties of combination therapies. We used the HCV replicon system to assess the potential use of the compound of the present invention or in combination therapies with Interferon alpha, cyclosporine analogs and inhibitors targeting other HCV proteins. The acute effects of a single or combinations of drugs are studied in the “Huh-luc/neo-ET” replicon with each chemical agent titrated in an X or Y direction in a 6 point two-fold dilution curve centered around the EC50 of each drug. Briefly, replicon cells are seeded at 7,000 cells per well in 90 ul DMEM (without phenol red, Invitrogen Cat.#31053-036) per well with 10% FCS, 1% non-essential amino acids, 1% of Glutamax and 1% of 100× penicillin/streptomycin and incubated overnight at 37° C., 5% CO2, 100% relative humidity. […]

[1] = Table 11, qRT-PCR or luciferase assay, read-out: Genotype-1b replicon EC50 Range
[2] = Table 12, numeric values, read-out: 1b EC50

Row | Compound | EC50 [1] [nM] | further results
1 | COC(=O)N[C@H](C(=O)N1CC2(CC2)C[C@H]1c1nc(-c2ccc(C#Cc3ccc4[nH]c([C@@H]5CCCN5C(=O)[C@@H](NC(=O)OC)C(C)C)nc4c3)cc2)c[nH]1)C(C)C [Example 523] | < 1 | 
2 | COC(=O)N[C@H](C(=O)N1CCC[C@H]1c1ncc(-c2ccc(C#Cc3ccc4nc([C@@H]5CCCN5C(=O)[C@@H](NC(=O)OC)C(C)C)[nH]c4c3)cc2)[nH]1)C(C)C [Example 515] | < 1 | 
3 | COC(=O)N[C@H](C(=O)N1CCC[C@H]1c1nc(-c2ccc3cc(-c4ccc5[nH]c([C@@H]6CCCN6C(=O)[C@@H](NC(=O)OC)[C@@H](C)OC)nc5c4)ccc3c2)c[nH]1)[C@@H](C)OC [Example 460] | < 1 | 
4 | COC(=O)N[C@H](C(=O)N1CC(C)(C)C[C@H]1c1ncc(-c2ccc(C#Cc3ccc4nc([C@@H]5C[C@@]6(CCCO6)CN5C(=O)[C@@H](NC(=O)OC)C(C)C)[nH]c4c3)cc2)[nH]1)C(C)C [Example 560] |  | EC50 (Table 12, range class, read-out: 1b EC50 Range): < 1 nM
5 | CCOC(=O)N[C@H](C(=O)N1CCC[C@H]1c1nc2cc(C#Cc3ccc(-c4c[nH]c([C@@H]5CCCN5C(=O)[C@@H](NC(=O)OC)C(C)C)n4)cc3)ccc2[nH]1)C(C)C [Example 481] | < 1 | 
6 | CCC[C@H](NC(=O)OC)C(=O)N1CCC[C@H]1c1nc2cc(C#Cc3ccc(-c4c[nH]c([C@@H]5CCCN5C(=O)[C@@H](NC(=O)OC)C(C)C)n4)cc3)ccc2[nH]1 [Example 503] | < 1 | 
7 | COC(=O)N[C@H](C(=O)N1CCC[C@H]1c1ncc(-c2ccc(C#Cc3ccc4nc([C@@H]5CC[C@H](C)N5C(=O)[C@@H](NC(=O)OC)C(C)C)[nH]c4c3)cc2)[nH]1)C(C)C [Example 542] | < 1 | 
8 | COC(=O)N[C@H](C(=O)NCc1nc(-c2ccc(C#Cc3ccc4[nH]c([C@@H]5CCCN5C(=O)[C@@H](NC(=O)OC)C(C)C)nc4c3)cc2)c[nH]1)C(C)C [Example 479] | < 1 | 
9 | [2H]c1c([2H])c(-c2c[nH]c([C@@H]3CCCN3C(=O)[C@@H](NC(=O)OC)C(C)C)n2)c([2H])c([2H])c1C#Cc1ccc2[nH]c([C@@H]3CCCN3C(=O)[C@@H](NC(=O)OC)C(C)C)nc2c1 [Example 488] | < 1 | 
10 | COC(=O)N[C@H](C(=O)N1CCC[C@H]1c1nc(-c2ccc(C#Cc3ccc4[nH]c([C@@H]5CCCN5C(=O)[C@H](NC(=O)OC)C(C)C)nc4c3)cc2)c[nH]1)C(C)C [Example 508] | < 1 | 
11 | COC(=O)N[C@H](C(=O)N1CCC[C@H]1c1nc(-c2ccc(/C=C/c3ccc4[nH]c([C@@H]5CCCN5C(=O)[C@@H](NC(=O)OC)C(C)C)nc4c3)cc2)c[nH]1)C(C)C [Example 492] | < 1 | 
12 | COC(=O)N[C@H](C(=O)N1C[C@H](C)C[C@H]1c1ncc(-c2ccc(C#Cc3ccc4nc([C@@H]5C[C@@]6(CCCO6)CN5C(=O)[C@@H](NC(=O)OC)C(C)C)[nH]c4c3)cc2)[nH]1)C(C)C [Example 628] |  | EC50 [2]: 0.009 nM
13 | COC(=O)N[C@@H](C(=O)N1CCC[C@H]1c1nc(-c2ccc(C#Cc3ccc4[nH]c([C@@H]5CCCN5C(=O)[C@H](NC(=O)OC)c5ccccc5)nc4c3)cc2)c[nH]1)c1ccccc1 [Example 2-1] | < 1 | 
14 | COC(=O)N[C@H](C(=O)N1CCC[C@H]1c1ncc(-c2ccc(C#Cc3ccc4nc([C@@H]5C[C@@H](F)CN5C(=O)[C@@H](NC(=O)OC)C(C)C)[nH]c4c3)cc2)[nH]1)C(C)C [Example 540] | < 1 | 
15 | COC(=O)N[C@H](C(=O)N1CCC[C@H]1c1ncc(-c2ccc(C#Cc3ccc4nc([C@@H]5C[C@]6(CC(C)=NO6)CN5C(=O)[C@@H](NC(=O)OC)C(C)C)[nH]c4c3)cc2)[nH]1)C(C)C [Example 554] |  | EC50 [2]: 0.028 nM
16 | COC(=O)N[C@@H](C(=O)N1CCC[C@H]1c1nc(-c2ccc(/C=C/c3ccc4[nH]c([C@@H]5CCCN5C(=O)[C@H](NC(=O)OC)c5ccccc5)nc4c3)cc2)c[nH]1)c1ccccc1 [Example 357] | < 1 | 

Row | Compound | EC50 [1] [nM] | further results
17 | C=C(c1ccc(-c2c[nH]c([C@@H]3CCCN3C(=O)[C@@H](NC(=O)OC)C(C)C)n2)cc1)c1ccc2nc([C@@H]3CCCN3C(=O)[C@@H](NC(=O)OC)C(C)C)[nH]c2c1 [Example 493] | < 1 | 
18 | COC(=O)N[C@H](C(=O)N1CCC[C@H]1c1ncc(-c2ccc(C#Cc3ccc4nc([C@@H]5CCCN5C(=O)[C@@H](NC(=O)OC)C5CC5)[nH]c4c3)cc2)[nH]1)C(C)C [Example 528] | < 1 | 
19 | COC(=O)N[C@H](C(=O)N1CCC[C@H]1c1nc(-c2ccc(C#Cc3cc4nc([C@@H]5CCCN5C(=O)[C@@H](NC(=O)OC)C(C)C)[nH]c4cc3Cl)cc2)c[nH]1)C(C)C [Example 485] | < 1 | 
20 | COC(=O)N[C@H](C(=O)N1CCC[C@H]1c1ncc(-c2ccc([C@H]3C[C@@H]3c3ccc4nc([C@@H]5CCCN5C(=O)[C@@H](NC(=O)OC)C(C)C)[nH]c4c3)cc2)[nH]1)C(C)C [Example 497-a] | < 1 | 
21 | COC(=O)N[C@H](C(=O)N1CCC[C@H]1c1nc2cc(C#Cc3ccc(-c4c[nH]c([C@@H]5CCCN5C(=O)[C@@H](NC(=O)OC)C(C)C)n4)cc3)ccc2[nH]1)c1ccccc1 [Example 509] | < 1 | 
22 | COC(=O)N[C@H](C(=O)N1CCC[C@H]1c1nc(-c2ccc(C#Cc3ccc4[nH]c([C@@H]5CCCN5C(=O)[C@@H](OC(=O)OC)C(C)C)nc4c3)cc2)c[nH]1)C(C)C [Example 480] | < 1 | 
23 | COC(=O)N[C@H](C(=O)N1C[C@@H](C)C[C@H]1c1ncc(-c2ccc(C#Cc3ccc4nc([C@@H]5C[C@@]6(CCCO6)CN5C(=O)[C@@H](NC(=O)OC)C(C)C)[nH]c4c3)cc2)[nH]1)C(C)C [Example 559] |  | EC50 [2]: 0.014 nM
24 | COC(=O)N[C@H](C(=O)N1CCC[C@H]1c1nc(-c2ccc(C#Cc3ccc4[nH]c([C@@H]5CCCN5C(=O)[C@@H](NC(=O)OC)[C@@H](C)OC)nc4c3)cc2)c[nH]1)C(C)C [Example 505] | < 1 | 
25 | COC(=O)N[C@H](C(=O)N1CCC[C@H]1c1nc(-c2ccc3cc(-c4ccc5[nH]c([C@@H]6CCCN6C(=O)[C@@H](NC(=O)OC)C(C)C)nc5c4)ccc3c2)c[nH]1)C(C)C [Example 459] | < 1 | 
26 | COC(=O)N[C@H](C(=O)N1CCC[C@H]1c1nc(-c2ccc(CCCc3ccc4[nH]c([C@@H]5CCCN5C(=O)[C@@H](NC(=O)OC)C(C)C)nc4c3)s2)c[nH]1)C(C)C [Example 457] | < 1 | 
27 | COC(=O)N[C@H](C(=O)N1CCC[C@H]1c1nc(-c2ccc(C#Cc3ccc4[nH]c([C@@H]5CC6(CC6)CN5C(=O)[C@@H](NC(=O)OC)C(C)C)nc4c3)cc2)c[nH]1)C(C)C [Example 521] | < 1 | 
28 | COC(=O)N[C@H](C(=O)N1CCC[C@H]1c1ncc(-c2ccc(C#Cc3ccc4nc([C@@H]5C[C@@]6(CC=CCO6)CN5C(=O)[C@@H](NC(=O)OC)C(C)C)[nH]c4c3)cc2)[nH]1)C(C)C [Example 563] |  | EC50 [2]: 0.012 nM
29 | COC(=O)N[C@H](C(=O)N1CCC[C@H]1c1nc(-c2ccc(C#Cc3cc(F)c4[nH]c([C@@H]5CCCN5C(=O)[C@@H](NC(=O)OC)C(C)C)nc4c3)cc2)c[nH]1)C(C)C [Example 483] | < 1 | 
30 | COC(=O)N[C@H](C(=O)N1CCC[C@H]1c1nc(-c2ccc3cc(-c4cc5nc([C@@H]6CCCN6C(=O)[C@@H](NC(=O)OC)C(C)C)[nH]c5cc4Cl)ccc3c2)c[nH]1)C(C)C [Example 490] | < 1 | 
31 | COC(=O)N[C@H](C(=O)N1CCC[C@H]1c1ncc(-c2ccc(C#Cc3ccc4nc([C@@H]5C[C@H](Oc6ccccc6)CN5C(=O)[C@@H](NC(=O)OC)C(C)C)[nH]c4c3)cc2)[nH]1)C(C)C [Example 538] | < 1 | 
32 | COC(=O)N[C@H](C(=O)N1CCC[C@H]1c1nc(-c2ccc(C#Cc3ccc4[nH]c([C@@H]5CCCN5C(=O)[C@H](NC(=O)OC)c5ccccc5)nc4c3)cc2)c[nH]1)C(C)C [Example 504] | < 1 | 
